Key:
Experiment in all cases: Kinase HotSpot profiling (Reaction Biology Corp.)
Format in all cases: biochemical
Settings in all cases: ATP at Km
MEKK2 = molecular target: T1, MEKK2 (Homo sapiens, UniProt Q9Y2U5)
T1 construct: purchased Reaction Biology Corp
T1 sequence (Q9Y2U5 1-619): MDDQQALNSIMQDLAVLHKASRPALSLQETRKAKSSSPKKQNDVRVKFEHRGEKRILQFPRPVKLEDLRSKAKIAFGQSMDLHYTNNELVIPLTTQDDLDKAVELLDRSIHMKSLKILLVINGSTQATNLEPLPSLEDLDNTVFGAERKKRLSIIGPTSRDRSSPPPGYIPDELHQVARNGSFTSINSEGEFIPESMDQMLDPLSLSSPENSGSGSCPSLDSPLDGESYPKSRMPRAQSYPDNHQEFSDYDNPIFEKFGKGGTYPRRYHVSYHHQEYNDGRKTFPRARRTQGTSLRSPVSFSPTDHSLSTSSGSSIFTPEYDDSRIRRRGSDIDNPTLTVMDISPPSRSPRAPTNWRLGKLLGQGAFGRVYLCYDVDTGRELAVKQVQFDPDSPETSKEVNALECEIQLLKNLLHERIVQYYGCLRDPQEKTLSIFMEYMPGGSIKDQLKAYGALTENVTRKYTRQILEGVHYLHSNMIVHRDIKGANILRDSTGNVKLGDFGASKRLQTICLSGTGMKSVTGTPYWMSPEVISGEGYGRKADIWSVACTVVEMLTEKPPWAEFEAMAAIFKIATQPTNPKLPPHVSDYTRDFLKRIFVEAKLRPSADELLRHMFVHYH
Procedure: (§1) Kinase assays were performed by Invitrogen (now Thermo Fisher Scientific, Waltham, MA) or Reaction Biology Corp. (Malvern, PA). Inhibitory activity of compounds for TAK1 was evaluated using LanthaScreen® Eu Kinase Binding Assay (Invitrogen, Waltham, MA). The kinase profile of compound 13h was determined by the kinase HotSpot Profiling service of Reaction Biology Corporation. All assays were performed at Km for ATP.

BRAF = molecular target: T2, BRAF (Homo sapiens, UniProt P15056)
T2 construct: purchased Reaction Biology Corp
Procedure: as §1

MINK1/MAP4K6 = molecular target: T3, MINK1/MAP4K6 (Homo sapiens, UniProt Q8N4C8)
T3 construct: purchased Reaction Biology Corp
Procedure: as §1

MLK2/MAP3K10 = molecular target: T4, MLK2/MAP3K10 (Homo sapiens, UniProt Q02779)
T4 construct: purchased Reaction Biology Corp
Procedure: as §1

MEKK6 = molecular target: T5, MEKK6 (Homo sapiens, UniProt O95382)
T5 construct: purchased Reaction Biology Corp
T5 sequence (O95382 1-1288): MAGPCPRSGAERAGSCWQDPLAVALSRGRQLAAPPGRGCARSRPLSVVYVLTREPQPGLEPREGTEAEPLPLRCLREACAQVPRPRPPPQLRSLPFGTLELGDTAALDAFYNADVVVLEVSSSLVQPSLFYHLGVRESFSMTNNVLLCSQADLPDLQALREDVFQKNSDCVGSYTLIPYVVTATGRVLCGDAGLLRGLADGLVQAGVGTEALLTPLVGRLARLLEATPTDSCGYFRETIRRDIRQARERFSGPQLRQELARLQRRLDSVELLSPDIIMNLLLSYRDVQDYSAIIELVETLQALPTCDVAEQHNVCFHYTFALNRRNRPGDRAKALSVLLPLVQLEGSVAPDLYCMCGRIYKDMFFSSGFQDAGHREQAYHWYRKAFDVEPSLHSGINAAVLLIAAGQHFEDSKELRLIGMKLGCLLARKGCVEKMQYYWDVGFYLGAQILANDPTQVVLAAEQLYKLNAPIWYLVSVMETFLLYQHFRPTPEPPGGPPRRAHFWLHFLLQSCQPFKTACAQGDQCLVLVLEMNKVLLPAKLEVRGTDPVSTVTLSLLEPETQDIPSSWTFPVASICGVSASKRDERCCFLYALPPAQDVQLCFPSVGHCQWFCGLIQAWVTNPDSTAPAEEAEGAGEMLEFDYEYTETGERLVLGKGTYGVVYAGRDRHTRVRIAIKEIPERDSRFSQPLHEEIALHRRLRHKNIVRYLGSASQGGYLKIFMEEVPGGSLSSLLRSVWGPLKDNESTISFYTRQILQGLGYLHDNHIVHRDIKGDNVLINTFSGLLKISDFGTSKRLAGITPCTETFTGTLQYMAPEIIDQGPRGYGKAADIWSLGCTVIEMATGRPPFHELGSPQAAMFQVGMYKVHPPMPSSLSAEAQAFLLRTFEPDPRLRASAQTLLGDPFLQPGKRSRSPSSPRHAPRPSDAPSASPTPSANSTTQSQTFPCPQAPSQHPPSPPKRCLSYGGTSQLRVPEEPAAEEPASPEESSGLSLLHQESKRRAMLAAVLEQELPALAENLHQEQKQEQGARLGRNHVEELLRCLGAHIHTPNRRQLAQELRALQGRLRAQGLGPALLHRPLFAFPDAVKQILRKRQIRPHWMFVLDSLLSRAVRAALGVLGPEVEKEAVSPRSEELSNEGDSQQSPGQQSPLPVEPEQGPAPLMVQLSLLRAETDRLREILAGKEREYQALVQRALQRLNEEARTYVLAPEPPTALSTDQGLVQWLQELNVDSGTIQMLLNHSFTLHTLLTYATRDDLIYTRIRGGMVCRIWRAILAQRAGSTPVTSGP
Procedure: as §1

T4 sequence (Q02779 whole entry): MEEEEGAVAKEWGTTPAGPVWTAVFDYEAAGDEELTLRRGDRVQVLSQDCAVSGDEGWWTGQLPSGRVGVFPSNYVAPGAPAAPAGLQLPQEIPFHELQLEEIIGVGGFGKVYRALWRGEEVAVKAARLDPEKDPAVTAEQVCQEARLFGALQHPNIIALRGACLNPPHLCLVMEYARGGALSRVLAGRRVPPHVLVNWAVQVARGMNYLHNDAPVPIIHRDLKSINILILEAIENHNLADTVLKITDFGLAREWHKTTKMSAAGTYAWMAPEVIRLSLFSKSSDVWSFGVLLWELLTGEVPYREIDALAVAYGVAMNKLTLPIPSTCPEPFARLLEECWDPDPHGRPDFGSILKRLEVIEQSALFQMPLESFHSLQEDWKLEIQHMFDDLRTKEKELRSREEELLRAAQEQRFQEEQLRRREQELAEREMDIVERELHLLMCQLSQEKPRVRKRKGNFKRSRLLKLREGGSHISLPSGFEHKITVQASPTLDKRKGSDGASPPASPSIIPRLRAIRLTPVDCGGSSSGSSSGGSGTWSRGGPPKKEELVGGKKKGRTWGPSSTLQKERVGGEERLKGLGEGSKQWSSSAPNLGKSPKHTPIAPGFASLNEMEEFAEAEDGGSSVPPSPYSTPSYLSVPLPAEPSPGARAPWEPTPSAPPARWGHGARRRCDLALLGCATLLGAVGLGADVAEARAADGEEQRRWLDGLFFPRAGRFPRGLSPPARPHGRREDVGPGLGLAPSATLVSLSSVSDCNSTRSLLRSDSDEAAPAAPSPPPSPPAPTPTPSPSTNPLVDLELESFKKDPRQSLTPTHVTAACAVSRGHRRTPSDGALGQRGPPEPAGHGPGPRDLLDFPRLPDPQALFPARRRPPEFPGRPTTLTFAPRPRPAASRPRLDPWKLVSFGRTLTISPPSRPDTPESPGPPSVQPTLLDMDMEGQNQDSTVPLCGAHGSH
T2 sequence (P15056 whole entry): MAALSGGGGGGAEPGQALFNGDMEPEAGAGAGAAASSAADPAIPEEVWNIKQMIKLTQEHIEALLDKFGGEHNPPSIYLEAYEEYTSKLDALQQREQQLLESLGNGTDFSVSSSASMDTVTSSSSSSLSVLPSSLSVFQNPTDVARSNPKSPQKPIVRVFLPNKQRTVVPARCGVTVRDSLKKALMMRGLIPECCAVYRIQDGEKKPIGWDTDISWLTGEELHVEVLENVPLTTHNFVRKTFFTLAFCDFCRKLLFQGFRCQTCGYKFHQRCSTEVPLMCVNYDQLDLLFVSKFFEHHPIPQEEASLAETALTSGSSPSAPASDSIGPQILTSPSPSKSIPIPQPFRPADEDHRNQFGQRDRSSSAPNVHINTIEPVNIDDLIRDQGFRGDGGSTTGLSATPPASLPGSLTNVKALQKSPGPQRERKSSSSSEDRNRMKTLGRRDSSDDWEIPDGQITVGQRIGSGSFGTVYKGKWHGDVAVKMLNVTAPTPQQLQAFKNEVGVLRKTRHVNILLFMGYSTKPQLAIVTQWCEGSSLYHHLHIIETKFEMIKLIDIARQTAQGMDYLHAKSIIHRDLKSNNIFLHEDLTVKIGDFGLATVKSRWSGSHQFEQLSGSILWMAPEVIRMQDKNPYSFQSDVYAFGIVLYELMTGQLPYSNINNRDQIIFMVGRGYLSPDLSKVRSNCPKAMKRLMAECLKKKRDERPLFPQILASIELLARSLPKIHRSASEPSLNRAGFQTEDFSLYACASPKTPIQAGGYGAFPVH
T3 sequence (Q8N4C8 whole entry): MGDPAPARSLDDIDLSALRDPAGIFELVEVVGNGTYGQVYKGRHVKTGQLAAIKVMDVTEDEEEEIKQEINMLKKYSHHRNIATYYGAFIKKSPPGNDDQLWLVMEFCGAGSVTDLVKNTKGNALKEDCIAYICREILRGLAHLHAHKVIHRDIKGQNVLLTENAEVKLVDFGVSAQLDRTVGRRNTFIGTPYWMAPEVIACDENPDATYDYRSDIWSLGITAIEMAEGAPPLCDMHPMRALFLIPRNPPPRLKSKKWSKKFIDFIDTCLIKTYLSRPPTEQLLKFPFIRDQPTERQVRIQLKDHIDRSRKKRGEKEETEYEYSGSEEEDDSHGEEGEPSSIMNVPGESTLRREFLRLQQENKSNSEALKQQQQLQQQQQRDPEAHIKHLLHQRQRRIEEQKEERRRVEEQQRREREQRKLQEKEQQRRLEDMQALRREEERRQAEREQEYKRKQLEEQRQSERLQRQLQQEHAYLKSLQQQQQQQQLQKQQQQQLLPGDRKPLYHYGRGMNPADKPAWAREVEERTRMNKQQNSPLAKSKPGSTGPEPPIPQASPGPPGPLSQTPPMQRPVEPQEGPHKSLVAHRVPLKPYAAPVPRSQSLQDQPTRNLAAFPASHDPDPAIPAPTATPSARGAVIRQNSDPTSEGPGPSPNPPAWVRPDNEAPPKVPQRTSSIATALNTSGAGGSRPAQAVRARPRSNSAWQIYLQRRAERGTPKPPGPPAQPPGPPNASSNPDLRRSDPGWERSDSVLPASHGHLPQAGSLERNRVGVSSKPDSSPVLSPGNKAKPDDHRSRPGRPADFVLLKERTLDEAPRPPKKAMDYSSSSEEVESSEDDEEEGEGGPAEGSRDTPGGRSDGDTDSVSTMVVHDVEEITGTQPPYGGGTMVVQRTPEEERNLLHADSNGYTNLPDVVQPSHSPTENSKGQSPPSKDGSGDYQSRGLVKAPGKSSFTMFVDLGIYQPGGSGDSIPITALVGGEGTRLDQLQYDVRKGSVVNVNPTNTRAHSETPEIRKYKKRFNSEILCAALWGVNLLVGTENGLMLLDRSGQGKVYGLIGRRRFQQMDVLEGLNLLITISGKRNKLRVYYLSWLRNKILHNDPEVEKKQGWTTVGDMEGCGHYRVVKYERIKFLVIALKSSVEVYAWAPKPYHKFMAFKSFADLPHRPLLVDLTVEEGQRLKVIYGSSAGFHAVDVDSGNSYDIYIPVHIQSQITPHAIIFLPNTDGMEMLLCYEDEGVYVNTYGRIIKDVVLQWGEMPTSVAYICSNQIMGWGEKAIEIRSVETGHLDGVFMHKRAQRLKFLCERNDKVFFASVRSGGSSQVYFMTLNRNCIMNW

With `Cc1cccc(/C=C(\C#N)C(=O)N[C@@H]2CCN(c3c(Cl)cnc4[nH]c(-c5ccc(N6CCN(C)CC6)cc5)nc34)C2)n1` [Compound 13h, (R,E)-N-(1–(6-chloro-2–(4-(4-methylpiperazin-1-yl)phenyl)-3H-imidazo[4,5-b]pyridin-7-yl)pyrrolidin-3-yl)-2-cyano-3-(6-methylpyridin-2-yl)acrylamide] the inhibition at 1 µM (MEKK2) was 0%, the inhibition at 1 µM (BRAF) was 0% and the inhibition at 1 µM (MINK1/MAP4K6) was 15 ± 2.4%. For the same molecule, the inhibition at 1 µM (MLK2/MAP3K10) was 30 ± 2% and the inhibition at 1 µM (MEKK6) was 0%.
